Reference: a melting point compilation (Tetko et al.; mined from patent text by program, amines drawn as free bases though some values may be those of a salt)

`COc1cc2[nH]c(=O)c(=O)n(C)c2cc1OC` gave a melting point of 308 °C.
With `CC1(C)CCSc2cc(C(=O)Nc3ccc(C(=O)O)cc3)ccc21` the melting point was 274 to 276 °C.
`O=C(CO)c1ccc(Cl)c(Cl)c1` showed a melting point of 115 to 118 °C.
`COC(=O)c1sc2cncc(Oc3ccc(Cl)cc3)c2c1N` showed a melting point of 194 to 196 °C.
`CCCCC(=O)Nc1ccc(-c2cc3[nH]c(=O)[nH]c3nc2C)cc1` gave a melting point of over 300 °C.
For `OC(Cn1ccnc1)C12CC3CC(CC(C3)C1)C2` (stereo unspecified), the melting point was 226 to 228 °C.
For `CC(C)n1cc(-c2nc(C(N)=O)c(N)nc2-c2ccc(C#N)cc2)ccc1=O`, the melting point was 292 °C.
In the case of `CN(C)N=C(O)c1cc(C(=N)O)c(C(=O)O)cc1C(=O)O`, the melting point is reported as 293 to 295 °C.
Work on `COc1ccc(-c2coc3ccc(-c4nnc(SCc5cccc(C)c5)o4)cc23)cc1` yielded a melting point of 123 to 124 °C.
With `Fc1ccc(-c2ncn(CCCN3CCOCC3)c2-c2ccncc2)cc1` the melting point was 149 to 150 °C.
In the case of `COCc1c[nH]c2c([N+](=O)[O-])cc(C)cc2c1=O`, the melting point is reported as over 240 °C.
For `CCOC(=O)Cc1nc(-c2ccc(F)cc2)oc1-c1cccs1`, the melting point was 116 to 117 °C.
In the case of `O=C(O)C(=O)c1ccc(OCCCOc2ccccc2)cc1`, the melting point is reported as 50 to 52 °C.
In the case of `COc1cccc(Oc2ncccc2C(=O)NCc2ccccc2Cl)c1`, the melting point is reported as 71 to 74 °C.
Work on `CC(C)(C)NC(=O)[C@@H]1CCCN1C(=O)[C@@H](O)[C@H](Cc1ccccc1)NC(=O)[C@H](CC(N)=O)NC(=O)COC1CCN(Cc2ccccc2)CC1` yielded a melting point of 94 to 103 °C.
In the case of `Nc1nc(Cl)nc2c1ncn2[C@@H]1S[C@H](CO)[C@@H](O)[C@H]1O`, the melting point is reported as 220 to 222 °C.
In the case of `Cn1cnc(COc2nn3c(-c4ccccc4F)nnc3cc2C2(C)CCC(F)(F)CC2)n1`, the melting point is reported as 193 °C.
Compound `CN(C)C1(Cc2ccccc2)CCC(=O)CC1` has a melting point of 80 to 84 °C.
For `CCOC(=O)c1ccc(COc2cccc3nc(C(=O)NCc4cccc(OC)c4)[nH]c(=O)c23)cc1`, the melting point was 205 to 207 °C.
`CCN(CC)c1cc(C)nc(Oc2c(C)cc(Cl)cc2C)c1C` showed a melting point of 184 to 185 °C.
Work on `CNC(=O)c1ccccc1Nc1nc(Nc2cc3c(cc2OC)CCN(CCOC)CC3)ncc1Br` yielded a melting point of 171 to 175 °C.
Work on `CCNS(=O)(=O)Cc1ccc(N)cc1` yielded a melting point of 161 to 164 °C.
Compound `O=C1Nc2cccnc2N(C(=O)N2CCCC(CCN3CCCC3)C2)c2cc(Cl)ccc21` (stereo unspecified) has a melting point of 136 to 139 °C.
`CCCCOc1nn(-c2ccc(C(F)(F)F)cn2)cc1CCCOc1ccc(CCC(=O)O)c(OCC)c1` gave a melting point of 102 to 103 °C.
With `CC1(C)COc2ccc(C(=O)Nc3ccc(C(=O)O)cc3)cc2OC1` the melting point was 249 to 251 °C.
For `O=c1c(N2CCNCC2)nc2ccccc2n1-c1ccccc1Cl`, the melting point was 135 to 137 °C.
For `CC(C)(C)CNc1cc(Cl)nc(NC(C)(C)C)n1`, the melting point was 110 to 111 °C.
With `COc1ccc2nc3c(cc2c1)c(C(N)=O)nn3C` the melting point was 268 to 270 °C.
Compound `CCCc1nc2c(N)nc3ccc(Br)cc3c2s1` has a melting point of 177 to 180 °C.
With `COC(=O)c1ccc(-c2cnc3[nH]c(=O)n(CC4CCCCC4)c3n2)cc1` the melting point was 253 to 255 °C.
`COc1ccc(OCCCCCCCc2cc(C)no2)c(Cl)c1` showed a melting point of 45 to 46 °C.
Compound `C#CCCCCOc1ccc(/C=C/C(=O)Nc2ccccc2C(=O)O)cc1OC` has a melting point of 148 to 150 °C.
`O=C(O)COc1ccc(-c2c(Cl)c(CN3C(=O)CCC3=O)nc3sc4c(c23)CCS(=O)(=O)C4)cc1` showed a melting point of 260 to 261 °C.
With `COC1=CC(=O)N(CC(=O)OCc2ccccc2)C1` the melting point was 129 to 130 °C.
`O=[N+]([O-])c1ccccc1SN1CCN(C2CC2)CC1` gave a melting point of 100 to 102 °C.
In the case of `CC(C)(C)OC(=O)N1CCN(C(=O)OCc2ccccc2)CC1`, the melting point is reported as 90.5 to 91.5 °C.
For `COC1(c2ccccc2)N=CC(=O)N(C)c2ccc([N+](=O)[O-])cc21` (stereo unspecified), the melting point was 163 to 164 °C.
`CCN(CC)CCn1cc2c(c1)-c1ccc(Cl)cc1C(c1ccccc1Cl)=NC2` gave a melting point of 130 to 131 °C.
With `N#Cc1c(N2CCN(C(=O)c3ccco3)CC2)c2cc(F)ccc2n(Cc2ccc(F)cc2)c1=O` the melting point was 248 °C.
Compound `C#CCOCCCCCCCCCC(=O)O` has a melting point of under 30 °C.
For `Cc1ccc(-c2ccc3c(c2)C=C(C(=O)Nc2ccc(CN(C(C)C)C(C)C)cc2)CCO3)cc1`, the melting point was 152 to 153 °C.
`Cc1cc(C(=O)c2ccc(Br)cc2)c(O)cc1Cl` showed a melting point of 238 to 239 °C.
For `Cc1ccc2[nH]c3c(c2c1)C(C(=O)OCc1ccccc1)CCC3` (stereo unspecified), the melting point was 115 to 117 °C.
Compound `CCCN(CCCC12CC3CC(CC(C3)C1)C2)C(=O)NCc1ccncc1` has a melting point of 96 to 98 °C.
With `CNc1cc(Cl)c(CO)c(Cl)c1` the melting point was 108 to 111 °C.
Compound `CC1CN(Cc2ccc(Cl)nc2)C(=C[N+](=O)[O-])N1` (stereo unspecified) has a melting point of 170 to 174 °C.
For `O=C(c1c(Cl)cccc1Cl)N(C(=O)c1c(Cl)cccc1Cl)c1cc(-c2ccc(Cl)cc2)on1`, the melting point was 219 to 223 °C.
For `COC(c1ccc(Cl)c2nc3n(c12)CCCN3c1ccc(Cl)cc1Cl)(C1CC1)C1CC1`, the melting point was 99 to 100 °C.
For `COc1cc(C(=O)N2CCN(C(=O)c3cc(OC)c(OC)c(OC)c3)C(CNC(=O)OC(C)C)C2)cc(OC)c1OC` (stereo unspecified), the melting point was 140 °C.
Work on `CSc1ccc2n1CCC2C#N` (stereo unspecified) yielded a melting point of 58 to 58.5 °C.
Compound `COC(=O)COc1ccc(Cn2c(-c3ccc(C(F)(F)F)cc3)c(C)c3cc(OCc4ccccc4)ccc32)cc1` has a melting point of 221 °C.
